Laboratory results as given in ChEMBL document CHEMBL5291721, “A preclinical secondary pharmacology resource illuminates target-adverse drug reaction associations of marketed drugs” (Nat Commun, 2023).

Tests used:
Adenosine receptor A3 = biological target: T1, Adenosine receptor A3 (Homo sapiens, UniProt P0DMS8)
T1 sequence (P0DMS8 whole entry): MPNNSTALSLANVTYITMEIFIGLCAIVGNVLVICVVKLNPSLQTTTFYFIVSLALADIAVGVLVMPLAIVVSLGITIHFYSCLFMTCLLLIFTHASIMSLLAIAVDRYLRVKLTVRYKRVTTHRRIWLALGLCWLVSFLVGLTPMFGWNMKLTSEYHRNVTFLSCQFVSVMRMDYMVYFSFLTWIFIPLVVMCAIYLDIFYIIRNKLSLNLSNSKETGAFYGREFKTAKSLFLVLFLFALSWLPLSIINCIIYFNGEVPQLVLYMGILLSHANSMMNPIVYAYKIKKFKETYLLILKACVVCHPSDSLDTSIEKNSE

[1] = biological target: T2, Alpha-1A adrenergic receptor (Homo sapiens, UniProt P35348); format: functional, cell-based
T2 sequence (P35348 whole entry): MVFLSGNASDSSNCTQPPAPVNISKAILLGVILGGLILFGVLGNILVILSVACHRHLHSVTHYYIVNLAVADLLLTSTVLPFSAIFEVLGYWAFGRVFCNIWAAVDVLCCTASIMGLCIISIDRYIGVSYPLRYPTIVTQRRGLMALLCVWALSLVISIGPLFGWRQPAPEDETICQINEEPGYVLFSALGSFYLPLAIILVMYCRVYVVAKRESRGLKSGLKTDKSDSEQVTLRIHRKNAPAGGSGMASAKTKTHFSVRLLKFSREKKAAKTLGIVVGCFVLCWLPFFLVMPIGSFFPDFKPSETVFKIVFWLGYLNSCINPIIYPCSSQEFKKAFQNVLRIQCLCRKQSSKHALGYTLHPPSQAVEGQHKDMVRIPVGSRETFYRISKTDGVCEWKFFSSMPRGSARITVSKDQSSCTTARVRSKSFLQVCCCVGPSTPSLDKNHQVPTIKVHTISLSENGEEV

[2] = biological target: T3, Muscarinic acetylcholine receptor M1 (Homo sapiens, UniProt P11229); format: functional, cell-based
T3 sequence (P11229 whole entry): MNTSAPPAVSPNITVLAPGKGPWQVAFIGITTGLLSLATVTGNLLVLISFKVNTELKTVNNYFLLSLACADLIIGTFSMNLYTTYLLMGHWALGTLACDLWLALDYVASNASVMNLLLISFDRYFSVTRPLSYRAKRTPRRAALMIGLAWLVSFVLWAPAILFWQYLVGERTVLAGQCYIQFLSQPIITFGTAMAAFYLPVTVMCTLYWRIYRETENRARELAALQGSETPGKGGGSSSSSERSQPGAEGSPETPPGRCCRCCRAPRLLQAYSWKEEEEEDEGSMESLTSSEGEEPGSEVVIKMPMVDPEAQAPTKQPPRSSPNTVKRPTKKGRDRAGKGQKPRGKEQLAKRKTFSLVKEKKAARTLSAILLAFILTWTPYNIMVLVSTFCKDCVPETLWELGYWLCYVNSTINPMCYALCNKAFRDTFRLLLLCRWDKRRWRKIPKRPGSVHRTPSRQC

[3] = biological target: T4, Muscarinic acetylcholine receptor M2 (Homo sapiens, UniProt P08172)
T4 sequence (P08172 whole entry): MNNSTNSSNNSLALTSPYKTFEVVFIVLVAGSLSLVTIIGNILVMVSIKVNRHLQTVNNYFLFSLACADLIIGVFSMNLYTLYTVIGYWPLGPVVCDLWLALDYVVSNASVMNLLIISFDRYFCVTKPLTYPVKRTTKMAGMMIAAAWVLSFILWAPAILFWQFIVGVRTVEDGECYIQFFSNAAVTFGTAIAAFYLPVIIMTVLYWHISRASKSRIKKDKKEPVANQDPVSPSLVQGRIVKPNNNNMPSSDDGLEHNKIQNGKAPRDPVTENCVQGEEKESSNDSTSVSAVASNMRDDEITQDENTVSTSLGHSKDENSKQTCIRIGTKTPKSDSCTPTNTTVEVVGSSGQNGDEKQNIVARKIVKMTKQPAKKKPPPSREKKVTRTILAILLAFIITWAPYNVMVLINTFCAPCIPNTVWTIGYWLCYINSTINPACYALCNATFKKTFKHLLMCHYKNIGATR

Estrogen receptor = biological target: T5, Estrogen receptor (Homo sapiens, UniProt P03372)
T5 sequence (P03372 whole entry): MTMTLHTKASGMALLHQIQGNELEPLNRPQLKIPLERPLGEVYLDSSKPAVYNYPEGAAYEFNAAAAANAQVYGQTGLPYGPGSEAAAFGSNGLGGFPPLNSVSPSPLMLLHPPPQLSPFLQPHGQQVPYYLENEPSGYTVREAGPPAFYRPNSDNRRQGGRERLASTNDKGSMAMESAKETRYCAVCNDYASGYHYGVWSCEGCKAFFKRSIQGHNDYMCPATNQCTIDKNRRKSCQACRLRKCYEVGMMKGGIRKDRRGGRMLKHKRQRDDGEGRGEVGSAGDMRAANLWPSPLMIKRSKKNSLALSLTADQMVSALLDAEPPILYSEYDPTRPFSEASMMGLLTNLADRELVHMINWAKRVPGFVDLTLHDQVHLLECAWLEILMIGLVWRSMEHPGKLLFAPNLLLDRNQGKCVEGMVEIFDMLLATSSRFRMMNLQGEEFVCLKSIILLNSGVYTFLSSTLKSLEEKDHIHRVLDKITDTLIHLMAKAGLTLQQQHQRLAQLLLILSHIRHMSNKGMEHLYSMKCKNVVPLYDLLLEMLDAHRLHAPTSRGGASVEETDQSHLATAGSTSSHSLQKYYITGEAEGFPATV

Mu-type opioid receptor = Mu-type opioid receptor (Homo sapiens, UniProt P35372)
Sequence of Mu-type opioid receptor (P35372 whole entry): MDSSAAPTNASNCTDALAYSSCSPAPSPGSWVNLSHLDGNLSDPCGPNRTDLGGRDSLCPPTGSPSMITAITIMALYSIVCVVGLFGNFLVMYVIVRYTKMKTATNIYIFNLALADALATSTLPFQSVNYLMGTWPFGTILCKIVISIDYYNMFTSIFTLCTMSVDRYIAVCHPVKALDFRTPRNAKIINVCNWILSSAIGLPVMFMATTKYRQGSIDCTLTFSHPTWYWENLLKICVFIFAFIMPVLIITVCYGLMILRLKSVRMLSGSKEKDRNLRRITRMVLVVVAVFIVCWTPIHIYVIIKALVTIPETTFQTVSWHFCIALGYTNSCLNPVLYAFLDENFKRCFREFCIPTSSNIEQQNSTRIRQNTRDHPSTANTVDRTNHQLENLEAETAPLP

[4] = biological target: 3',5'-cyclic-AMP phosphodiesterase 4A (Homo sapiens, UniProt P27815); format: functional
Sequence of 3',5'-cyclic-AMP phosphodiesterase 4A (P27815 whole entry): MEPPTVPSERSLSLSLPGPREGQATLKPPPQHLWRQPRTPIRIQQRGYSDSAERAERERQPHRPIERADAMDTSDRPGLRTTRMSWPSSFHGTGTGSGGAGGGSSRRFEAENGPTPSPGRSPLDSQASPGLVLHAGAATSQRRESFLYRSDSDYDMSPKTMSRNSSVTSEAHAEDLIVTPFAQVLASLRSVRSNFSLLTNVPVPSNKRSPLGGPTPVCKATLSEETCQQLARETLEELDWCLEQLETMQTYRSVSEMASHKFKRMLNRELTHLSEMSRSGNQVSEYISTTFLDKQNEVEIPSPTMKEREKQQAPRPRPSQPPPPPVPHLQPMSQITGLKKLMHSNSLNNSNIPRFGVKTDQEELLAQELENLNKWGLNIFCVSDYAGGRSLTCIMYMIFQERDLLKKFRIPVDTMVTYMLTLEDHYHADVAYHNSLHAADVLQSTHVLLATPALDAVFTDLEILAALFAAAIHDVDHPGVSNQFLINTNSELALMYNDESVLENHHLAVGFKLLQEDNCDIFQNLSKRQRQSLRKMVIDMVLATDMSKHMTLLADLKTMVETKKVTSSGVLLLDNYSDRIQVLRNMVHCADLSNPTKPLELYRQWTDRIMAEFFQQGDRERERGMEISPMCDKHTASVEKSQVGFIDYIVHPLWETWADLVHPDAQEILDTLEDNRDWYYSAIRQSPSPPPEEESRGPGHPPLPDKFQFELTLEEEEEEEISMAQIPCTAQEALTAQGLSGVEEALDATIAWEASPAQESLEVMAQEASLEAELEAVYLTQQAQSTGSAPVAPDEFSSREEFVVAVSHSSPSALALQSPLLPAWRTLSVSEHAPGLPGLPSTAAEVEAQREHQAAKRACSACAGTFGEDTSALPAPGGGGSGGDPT

[5] = biological target: Sodium-dependent noradrenaline transporter (Homo sapiens, UniProt P23975)
Sequence of Sodium-dependent noradrenaline transporter (P23975 whole entry): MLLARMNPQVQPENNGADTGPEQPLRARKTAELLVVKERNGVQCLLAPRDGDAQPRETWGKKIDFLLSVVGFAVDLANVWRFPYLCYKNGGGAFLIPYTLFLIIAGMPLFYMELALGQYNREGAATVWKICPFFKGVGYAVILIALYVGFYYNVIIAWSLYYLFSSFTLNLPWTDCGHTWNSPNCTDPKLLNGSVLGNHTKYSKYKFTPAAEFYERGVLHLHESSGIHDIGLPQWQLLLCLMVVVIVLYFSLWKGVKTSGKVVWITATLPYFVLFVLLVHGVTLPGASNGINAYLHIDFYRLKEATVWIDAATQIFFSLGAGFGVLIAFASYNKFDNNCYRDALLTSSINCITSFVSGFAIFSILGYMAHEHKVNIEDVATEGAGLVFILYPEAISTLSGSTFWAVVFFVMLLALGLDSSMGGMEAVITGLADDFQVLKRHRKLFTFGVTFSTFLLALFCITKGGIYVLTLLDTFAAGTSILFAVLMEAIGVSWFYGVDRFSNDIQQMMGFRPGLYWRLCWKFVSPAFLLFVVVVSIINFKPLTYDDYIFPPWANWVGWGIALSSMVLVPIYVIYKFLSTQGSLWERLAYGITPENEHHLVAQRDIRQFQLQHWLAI

[6] = biological target: Sodium-dependent dopamine transporter (Homo sapiens, UniProt Q01959)
Sequence of Sodium-dependent dopamine transporter (Q01959 whole entry): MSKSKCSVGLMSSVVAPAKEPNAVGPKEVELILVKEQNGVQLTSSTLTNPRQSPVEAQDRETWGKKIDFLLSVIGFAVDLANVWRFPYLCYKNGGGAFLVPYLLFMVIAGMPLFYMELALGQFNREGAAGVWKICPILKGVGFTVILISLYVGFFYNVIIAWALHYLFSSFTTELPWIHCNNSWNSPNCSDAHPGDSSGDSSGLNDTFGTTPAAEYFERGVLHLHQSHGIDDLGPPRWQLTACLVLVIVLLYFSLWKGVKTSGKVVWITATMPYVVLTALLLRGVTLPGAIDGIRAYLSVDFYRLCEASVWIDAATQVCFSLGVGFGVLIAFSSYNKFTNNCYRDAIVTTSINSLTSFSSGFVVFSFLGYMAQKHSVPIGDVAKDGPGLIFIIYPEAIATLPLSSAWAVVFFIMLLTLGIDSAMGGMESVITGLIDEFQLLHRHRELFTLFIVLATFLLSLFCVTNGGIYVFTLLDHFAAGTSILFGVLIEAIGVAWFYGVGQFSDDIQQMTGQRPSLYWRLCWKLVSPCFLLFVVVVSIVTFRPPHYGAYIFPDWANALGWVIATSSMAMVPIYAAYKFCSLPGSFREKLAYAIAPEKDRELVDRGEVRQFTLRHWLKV

Thromboxane A2 receptor = biological target: T6, Thromboxane A2 receptor (Homo sapiens, UniProt P21731); format: functional, cell-based
T6 sequence (P21731 whole entry): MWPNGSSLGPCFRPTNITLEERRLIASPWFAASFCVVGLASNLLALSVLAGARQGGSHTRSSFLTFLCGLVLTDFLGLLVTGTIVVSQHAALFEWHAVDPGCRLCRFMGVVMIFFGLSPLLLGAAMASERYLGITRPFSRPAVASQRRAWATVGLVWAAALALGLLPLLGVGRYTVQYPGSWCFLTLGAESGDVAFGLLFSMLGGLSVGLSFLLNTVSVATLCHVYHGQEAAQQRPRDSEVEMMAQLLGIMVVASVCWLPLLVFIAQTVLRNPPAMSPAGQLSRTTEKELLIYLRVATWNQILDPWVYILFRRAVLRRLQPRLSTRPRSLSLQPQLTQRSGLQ
Note: assay procedure not described here.

SMILES | AC50 (Adenosine receptor A3) [µM] | AC50 [1] [µM] | AC50 [2] [µM] | AC50 [3] [µM] | AC50 (Estrogen receptor) [µM] | AC50 (Mu-type opioid receptor) [µM] | AC50 [4] [µM] | AC50 [5] [µM] | AC50 [6] [µM] | AC50 (Thromboxane A2 receptor) [µM]
CC[C@@H](C(N)=O)N1CCCC1=O | > 30 | > 30 | > 30 | > 30 | > 30 | > 30 | > 30 | > 30 | > 30 | > 30
N=C1CCCN1Cc1[nH]c(=O)[nH]c(=O)c1Cl | > 30 | > 30 | > 30 | > 30 | > 30 | > 30 | > 30 | > 30 | > 30 | > 30
CC(=O)c1ccc2c(c1)N(CCCN(C)C)c1ccccc1S2 [ACEPROMAZINE] | > 30 | 0.003 | > 30 | 0.204 | > 30 | 2.42 | > 30 | 0.161 | 19.5 | 13.7
CCC(C)(C)c1ccc(CC(C)CN2C[C@@H](C)O[C@@H](C)C2)cc1 (stereo not given in full) [AMOROLFINE] | 12.1 | > 30 | > 30 | > 30 | > 30 | > 30 | > 30 | > 30 | > 30 | > 30
N=c1ccn2c(n1)O[C@H]1[C@H](O)[C@@H](CO)O[C@H]12 [ANCITABINE] | > 30 | > 30 | > 30 | > 30 | > 30 | > 30 | > 30 | > 30 | > 30 | > 30
CCCNC(C)C(=O)Nc1c(C)csc1C(=O)OC (stereo not given) [ARTICAINE] | > 30 | > 30 | > 30 | > 30 | > 30 | > 30 | > 30 | > 30 | > 30 | > 30
CC1=C(/C=C/C(C)=C/C=C/C(C)=C/C=C/C=C(C)/C=C/C=C(C)/C=C/C2=C(C)CCCC2(C)C)C(C)(C)CCC1 [BETA CAROTENE] | > 30 | > 30 | > 30 | > 30 | > 30 | > 30 | > 30 | > 30 | > 30 | > 30
CC(C)(C)N1CCC(c2ccccc2)(c2ccccc2)CC1 [BUDIPINE] | > 30 | > 30 | > 30 | 0.301 | > 30 | 12.6 | > 30 | > 30 | > 30 | > 30
